Measurements: ChEMBL document CHEMBL2074394, “Multispecific organic anion transporter is responsible for the biliary excretion of the camptothecin derivative irinotecan and its metabolites in rats” (J Pharmacol Exp Ther, 1997)

Experiments:
[1] = target: T1, ATP-binding cassette sub-family C member 2 (Rattus norvegicus, UniProt Q63120); test: TP_TRANSPORTER: inhibition of DNP-SG uptake in bile canalicular membrane vesicles from SD rat; format: functional, cell membranes, Sprague-Dawley, Bile canalicular membrane vesicle
T1 sequence (Q63120 whole entry): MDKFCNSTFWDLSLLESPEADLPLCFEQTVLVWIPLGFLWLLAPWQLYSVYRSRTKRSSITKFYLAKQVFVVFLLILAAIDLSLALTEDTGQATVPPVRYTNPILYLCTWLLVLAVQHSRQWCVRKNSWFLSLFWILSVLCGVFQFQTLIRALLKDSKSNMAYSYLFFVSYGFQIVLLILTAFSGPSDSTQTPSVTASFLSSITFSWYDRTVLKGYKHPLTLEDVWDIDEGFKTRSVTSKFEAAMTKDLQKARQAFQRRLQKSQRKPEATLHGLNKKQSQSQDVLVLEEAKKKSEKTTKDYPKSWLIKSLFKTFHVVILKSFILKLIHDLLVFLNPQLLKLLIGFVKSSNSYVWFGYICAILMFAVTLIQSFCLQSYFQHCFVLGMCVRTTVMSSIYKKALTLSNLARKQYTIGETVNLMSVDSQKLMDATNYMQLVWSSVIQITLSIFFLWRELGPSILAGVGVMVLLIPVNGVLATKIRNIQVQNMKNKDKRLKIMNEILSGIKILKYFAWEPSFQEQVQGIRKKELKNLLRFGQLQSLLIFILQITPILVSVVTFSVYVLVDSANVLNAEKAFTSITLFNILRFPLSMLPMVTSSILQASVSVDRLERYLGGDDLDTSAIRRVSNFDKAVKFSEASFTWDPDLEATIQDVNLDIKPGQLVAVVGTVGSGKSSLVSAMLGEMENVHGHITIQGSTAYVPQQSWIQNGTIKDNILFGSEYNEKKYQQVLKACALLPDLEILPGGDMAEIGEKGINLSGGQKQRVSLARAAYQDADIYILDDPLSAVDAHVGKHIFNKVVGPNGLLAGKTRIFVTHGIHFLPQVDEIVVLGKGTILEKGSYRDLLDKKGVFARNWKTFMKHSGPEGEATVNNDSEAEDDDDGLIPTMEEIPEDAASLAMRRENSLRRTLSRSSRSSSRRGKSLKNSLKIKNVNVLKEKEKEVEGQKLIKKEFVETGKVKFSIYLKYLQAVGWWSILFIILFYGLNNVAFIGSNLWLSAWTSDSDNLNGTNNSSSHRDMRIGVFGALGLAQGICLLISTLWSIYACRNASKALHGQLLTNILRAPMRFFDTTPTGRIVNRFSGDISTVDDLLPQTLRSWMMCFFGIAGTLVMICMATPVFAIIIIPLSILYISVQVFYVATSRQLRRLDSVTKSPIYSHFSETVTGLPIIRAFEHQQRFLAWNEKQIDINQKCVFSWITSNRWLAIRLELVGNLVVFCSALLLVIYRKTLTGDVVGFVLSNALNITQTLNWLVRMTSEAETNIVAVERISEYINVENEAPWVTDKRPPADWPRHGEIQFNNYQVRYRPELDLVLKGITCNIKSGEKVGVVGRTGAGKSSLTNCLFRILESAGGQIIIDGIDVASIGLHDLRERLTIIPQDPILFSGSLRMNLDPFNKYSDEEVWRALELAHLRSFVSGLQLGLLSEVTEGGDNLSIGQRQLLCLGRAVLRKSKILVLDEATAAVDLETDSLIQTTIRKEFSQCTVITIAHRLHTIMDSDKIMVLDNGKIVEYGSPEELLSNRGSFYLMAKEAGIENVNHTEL

[2] = target: T1, ATP-binding cassette sub-family C member 2; test: TP_TRANSPORTER: uptake in bile canalicular membrane vesicles (EHBR); format: functional, cell membranes, Bile canalicular membrane vesicle
[3] = target: T1, ATP-binding cassette sub-family C member 2; test: TP_TRANSPORTER: uptake in bile canalicular membrane vesicles (SD); format: functional, cell membranes, Sprague-Dawley, Bile canalicular membrane vesicle
[4] = target: T1, ATP-binding cassette sub-family C member 2; test: TP_TRANSPORTER: uptake in canalicular membrane vesicles of liver (SD); format: functional, cell membranes, Sprague-Dawley, Canalicular membrane vesicle
[5] = target: T1, ATP-binding cassette sub-family C member 2; test: TP_TRANSPORTER: uptake in canalicular membrane vesicles of liver (EHBR); format: functional, cell membranes, Canalicular membrane vesicle

Compound | Ki [1] | Activity [2] | Activity [3] | Activity [4] | Activity [5]
CCc1c2c(nc3ccc(O)cc13)-c1cc([C@@](O)(CC)C(=O)O)c(CO)c(=O)n1C2 | 18.3 µM | substrate [+] | substrate [+] | – | –
CCc1c2c(nc3ccc(O[C@@H]4O[C@H](C(=O)O)[C@@H](O)[C@H](O)[C@H]4O)cc13)-c1cc([C@@](O)(CC)C(=O)O)c(CO)c(=O)n1C2 | 1.03 µM | substrate [+] | substrate [+] | – | –
CCc1c2c(nc3ccc(OC[C@@H]4O[C@H](C(=O)O)[C@@H](O)[C@H](O)[C@H]4O)cc13)-c1cc3c(c(=O)n1C2)COC(=O)[C@]3(O)CC | 1.62 µM | substrate [+] | substrate [+] | – | –
CCc1c2c(nc3ccc(OC(=O)N4CCC(N5CCCCC5)CC4)cc13)-c1cc([C@@](O)(CC)C(=O)O)c(CO)c(=O)n1C2 | 96.6 µM | – | – | substrate [+] | substrate [+]
